Literature values as cited in patent US20170071966A1, “PHARMACEUTICAL COMPOSITION” (priority 2014, published 2017).
Read-outs that look alike come from different tables or passages of the source. One block for each molecule: values may come before it.

What was measured:
[1] = tested on: mice exposed to whole body radiation; details: beta-carotene alone, given orally before or after whole body radiation
[2] = not given; remark: listed apart in the source
[3] = a few subjects, gram quantities
[4] = mice, drinking water 10, 20 and 30 mg/ml (4000, 8000, 12000 mg/kg body weight), 19-day experiment
[5] = gerbils, 1% in the food for 8 weeks
[6] = Senel et al. 1994
[7] = Nakane et al. 1996
[8] = Zhang et al. 1994

Compound: CC1=C(/C=C/C(C)=C/C=C/C(C)=C/C=C/C=C(C)/C=C/C=C(C)/C=C/C2=C(C)CCCC2(C)C)C(C)(C)CCC1 [beta-carotene]
- survival from radiation [1]: enhance survival
- risk of hypervitaminosis A (high beta-carotene doses): no risk of hypervitaminosis A
- long-term safety (patients with erythropoietic protoporphyria, 180 to 300 mg per day): safe at the highest daily dose for a lifetime
- acute toxicity (surveillance over the decades it was a prescription drug): no known acute toxicity

- water solubility [2]: highly water-soluble
- ill effects [3]: no known ill effects
- ill effects [4]: no obvious ill effects
Compound: Nc1nc2c(ncn2[C@@H]2O[C@H](COP(=O)(O)O)[C@@H](O)[C@H]2O)c(=O)[nH]1 [guanosine monophosphate, Guanosine Monophosphate]

- water solubility [2]: slightly water-soluble
- deleterious effects [5]: no obvious deleterious effects
Compound: Nc1nc2c(ncn2[C@@H]2O[C@H](CO)[C@@H](O)[C@H]2O)c(=O)[nH]1 [guanosine]

Compound: C[C@H](CCC(=O)[O-])[C@H]1CC[C@H]2[C@@H]3[C@H](O)C[C@@H]4C[C@H](O)CC[C@]4(C)[C@H]3C[C@H](O)[C@]12C.[Na+] [sodium cholate, Sodium cholate]
- increase of mucosal permeability of fluorescein isothiocyanate [6]: 100-200 times
- absorption of luteinizing hormone releasing hormone [7]: increased the absorption
- buccal absorption of insulin [8]: increased the buccal absorption
